Measurements taken from US8828930B2, “Hepatitis C virus NS3 protease inhibitors” (Merck Sharp & Dohme Corp., priority 2009, dated 2014).
Where two headings read alike, the source gives them in different places.

Key:
NS3/4A protease gt 3a = NS3/4A protease gt 3a (Hepatitis C virus genotype 3a, UniProt Q81258); test: HCV NS3 protease time-resolved fluorescence (TRF) assay, NS3/4A inhibitory activity (Ki), gt 3a; type: biochemical; conditions: NS3/4A enzyme
Description: (§1) The HCV NS3 protease inhibitory activity of the present compounds may be tested using assays known in the art. One such assay is HCV NS3 protease time-resolved fluorescence (TRF) assay as described below and in WO 2006/102087. Other examples of such assays are described in, for example, WO 2005/046712. HCV NS3 protease inhibitors, such as those described herein have a Ki less than 50 μM, such as less than 10 μM, and less than 100 nM. Ki is determined by an NS3 protease assay. The assay is performed in a final volume of 100 μl in assay buffer containing 50 mM HEPES, pH 7.5, 150 mM NaCl, 15% glycerol, 0.15% TRITON X-100, 10 mM DTT, and 0.1% PEG 8000. NS3 protease is preincubated with various concentrations of inhibitors in DMSO for 30 minutes. The reaction is initiated by adding the TRF peptide substrate (final concentration 100 nM). NS3 mediated hydrolysis of the substrate is quenched after 1 hour at room temperature with 100 μl of 500 mM MES, pH 5.5. Product fluorescence is detected using either a VICTOR V2 or FUSION fluorophotometer (PERKIN ELMER LIFE AND ANALYTICAL SCIENCES) with excitation at 340 nm and emission at 615 nm with a 400 μs delay. Testing concentrations of different enzyme forms are selected to result in a signal to background ratio (SIB) of 10-30. IC50 values are derived using a standard four-parameter fit to the data. Ki values are derived from IC50 values using the following formula, IC50=Ki(1+[S]/KM), Eqn (1), where [S] is the concentration of substrate peptide in the reaction and KM is the Michaelis constant. See Paola Gallinari et al., Modulation of Hepatitis C Virus NS3 Protease and Helicase Activities through the Interaction with NS4A, 38 BIOCHEM. 5620 (1999); Paola Gallinari et al., Multiple Enzymatic Activities Associated with Recombinant NS3 Protein of Hepatitis C Virus, 72(8) J. VIROLOGY 6758 (1998); Mariana Taliani et al., A Continuous Assay of Hepatitis C Virus Protease Based on Resonance Energy Transfer Depsipeptide Substrates, 240 ANAL. BIOCHEM. 60 (1996).
(§2) This NS3 protease assay was performed in a final volume of 100 μl assay buffer containing 50 mM HEPES, pH 7.5, 150 mM NaCl, 15% glycerol, 0.15% TRITON X-100, 10 mM DTT, and 0.1% PEG 8000. NS3/4A protease was pre-incubated with various concentrations of inhibitors in DMSO for 30 minutes. The reaction was initiated by adding the TRF peptide substrate (final concentration 100 nM). NS3 mediated hydrolysis of the substrate was quenched after 1 hour at RT with 100 μl of 500 mM MES, pH 5.5. Product fluorescence was detected using either a V1CTOR V2 or FUSION fluorophotometer (PERKIN ELMER LIFE AND ANALYTICAL SCIENCES) with excitation at 340 nm and emission at 615 nm with a 400 us delay. Testing concentrations of different enzyme forms were selected to result in a signal to background ratio (SIB) of 10-30. IC50 values were derived using a standard four-parameter fit to the data. K, values are derived from IC50 values using the following formula, IC50=Ki(1+[S]/KM), Eqn (1), where [S] is the concentration of substrate peptide in the reaction and KM is the Michaelis constant. See Paola Gallinari et al., Modulation of Hepatitis C Virus NS3 Protease and Helicase Activities through the Interaction with NS4A, 38 BIOCHEM. 5620 (1999); Paola Gallinari et al., Multiple Enzymatic Activities Associated with Recombinant NS3 Protein of Hepatitis C Virus, 72(8) J. VIROLOGY 6758 (1998); Mariana Milani et al., A Continuous Assay of Hepatitis C Virus Protease Based on Resonance Energy Transfer Depsipeptide Substrates, 240 ANAL. BIOCHEM. 60 (1996); Shi-Shan Mao et al., A time-resolved, internally quenched fluorescence assay to characterize inhibition of hepatitis C virus nonstructural protein 3-4A protease at low enzyme concentrations, 373 ANALYTICAL BIOCHEMISTRY 1 (2008). Measuring Compound Inhibitory Potency (Replicon EC50 (nM))

HCV gt 1b replicon = test: HCV replicon assay, compound inhibitory potency (Replicon EC50); type: cell-based; conditions: Hepatitis C virus, GT1B
Description: Measurement of inhibition by compounds was performed using the HCV replicon system. Several different replicons encoding different HCV genotypes or mutations were used. In addition, potency measurements were made using different formats of the replicon assay, including different ways of measurements and different plating formats. See Jan M. Vrolijk et al., A replicon-based bioassay for the measurement of interferons in patients with chronic hepatitis C, 110 J. VIROLOGICAL METHODS 201 (2003); Steven S. Carroll et al., Inhibition of Hepatitis C Virus RNA Replication by 2′-Modified Nucleoside Analogs, 278(14) J. BIOLOGICAL CHEMISTRY 11979 (2003). However, the underlying principles are common to all of these determinations, and are outlined below.
Stable neomycin phosphotransferase encoding replicon-harboring cell lines were used, so all cell lines were maintained under G418 selection prior to the assay. In some cases the cell lines encoded a luciferase:NEO FUSION and could be assayed either directly by determination of RNA copy number, or indirectly through measurement of the luciferase activity.
To initiate an assay, replicon cells were plated in the presence of a dilution series of test compound in the absence of G418. Typically, the assays were performed in a 96-well plate format for manual operation, or a 384-well plate in an automated assay. Replicon cells and compound were incubated for 24 to 48 hours, depending on the assay. At the end of the assay, cells are washed free of media and compound and then lysed. For direct quantitation, RNA levels were measured by 32P-probe hybridization and protection, or in a TAQMAN-based assay and normalized to cellular cyclophilin A RNA levels. In some cases, luciferase activity was measured using a conventional luciferase assay. In all cases, EC50 determinations were calculated as a percent of a DMSO control by fitting the data to a four-parameter fit function.

[1] = Plasma and liver concentrations and pharmacokinetics (Rat PK); type: in vivo; design: Rat PK 5 mpk AUC: unit not given here; conditions: for concentration at 4 h: 5 mg/kg, 5 mpk, liver concentration at 4 h; for Rat PK 5 mpk AUC: area under the plasma concentration/time curve
Description: Test compounds were dissolved in a suitable dosing vehicle for i.v. administration (e.g., 20%:60%:20% DMSO:PEG400:H2O) or per oral administration (e.g., 10% POLYSORBATE80:90% H2O or 100% PEG400). Animals were administered (n=2 or 3) using a crossover study design for non-rodents. Plasma samples were collected at time points between 2 minutes and 24 hours, and compound levels were determined by RP-LC/MS/MS. Liver samples were collected post-mortem in rat. Liver samples were weighed, homogenized, and diluted using techniques known to those skilled in the art, and compound levels were determined by RP-LC/MS/MS.
Pharmacokinetic parameters were calculated based on non-compartmental analysis (e.g., using WATSON, WINNOLIN). Predose concentrations that were below the limit of quantitation (BLQ) were assigned a value of 0, Standard pharmacokinetic parameters CLp, Vdss, half-life (only for IV), % F, Cmax, Tmax, AUC0-last, AUC0-infinity were calculated. AUC values were calculated using linear trapezoidal method for ascending concentrations and the log trapezoidal method for descending concentrations.

NS3/4A protease gt 1b = NS3/4A protease gt 1b (Hepatitis C virus genotype 1b, UniProt P26663); test: HCV NS3 protease time-resolved fluorescence (TRF) assay, NS3/4A inhibitory activity (Ki), gt 1b; type: biochemical; conditions: NS3/4A enzyme
Description: as §1, §2

[2] = molecular target: NS3/4A protease gt 1b A156V (Hepatitis C virus genotype 1b, UniProt P26663, A1182V); test: HCV NS3 protease time-resolved fluorescence (TRF) assay, NS3/4A inhibitory activity (Ki), gt 1b A156V; type: biochemical
Description: as §1, §2

[3] = 10% fetal bovine serum, read-out: gt 1b Replicon EC50 10% FBS
[4] = 50% normal human serum, read-out: gt 1b Replicon EC50 50% NHS

Structure (SMILES)	Ki (NS3/4A protease gt 3a) [pM]	EC50 (HCV gt 1b replicon; [3]) [pM]	EC50 (HCV gt 1b replicon; [4]) [pM]	concentration at 4 h [1] [µM]	Rat PK 5 mpk AUC [1]	Ki (NS3/4A protease gt 1b) [pM]	Ki [2] [pM]
COc1ccc2nc3c(nc2c1)O[C@@H]1C[C@H]2C(=O)N[C@]4(C(=O)NS(=O)(=O)C5CC5)C[C@H]4/C=C\CCCCC[C@H](NC(=O)O[C@@H]4CCC[C@H]4CCCCC3)C(=O)N2C1 [Example 1, (3R,20R,24R,28S,34Z,36S,38R,41S)—N-(Cyclopropylsulfonyl)-9-methoxy-26,40,42-trioxo-4,25-dioxa-1,6,13,27,39-pentaazaheptacyclo[26.13.1.1^3,41.0^5,14.0^7,12.0^20,24,0^36,38]tritetraconta-5,7,9,11,13,34-hexaene-38-carboxamide]	450	2000	9000	3.6	0	160	1600
COc1ccc2nc3c(nc2c1)O[C@@H]1C[C@H]2C(=O)N[C@]4(C(=O)NS(=O)(=O)C5(C)CC5)C[C@H]4/C=C\CCCCC[C@H](NC(=O)O[C@@H]4CCC[C@H]4CCCCC3)C(=O)N2C1 [Example 2, (3R,20R,24R,28S,34Z,36S,38R,41S)-9-Methoxy-N-[(1-methylcyclopropyl)sulfonyl]-26,40,42-trioxo-4,25-dioxa-1,6,13,27,39-pentaazaheptacyclo[26.13.1.1^3,41.0^5,14.0^7,12.0^20,24.0^36,38]tritetraconta-5,7,9,11,13,34-hexaene-38-carboxamide]	480	2000	10000	43	0.55	50	1100
COc1ccc2nc3c(nc2c1)O[C@@H]1C[C@H]2C(=O)N[C@]4(C(=O)NS(=O)(=O)C5CC5)C[C@H]4/C=C\CCCCC[C@H](NC(=O)O[C@@H]4C[C@H]4CCCCC3)C(=O)N2C1 [Example 3, (3R,20R,22R,26S,32Z,34S,36R,39S)—N-(Cyclopropylsulfonyl)-9-methoxy-24,38,40-trioxo-4,23-dioxa-1,6,13,25,37-pentaazaheptacyclo[24.13.1.1^3,39.0^5,14.0^7,12.0^20,22.0^34,36]hentetraconta-5,7,9,11,13,32-hexaene-36-carboxamide]	240	2000	8000	13	0.19	20	800
COc1ccc2nc3c(nc2c1)O[C@@H]1C[C@H]2C(=O)N[C@]4(C(=O)NS(=O)(=O)C5(C)CC5)C[C@H]4/C=C\CCCCC[C@H](NC(=O)O[C@@H]4C[C@H]4CCCCC3)C(=O)N2C1 [Example 4, (3R,20R,22R,26S,32Z,34S,36R,39S)-9-Methoxy-N-[(1-methylcyclopropyl)sulfonyl]-24,38,40-trioxo-4,23-dioxa-1,6,13,25,37-pentaazaheptacyclo[24.13.1.1^3,39.0^5,14.0^7,12.0^20,22.0^34,36]hentetraconta-5,7,9,11,13,32-hexaene-36-carboxamide]	270	2000	4000	19	0.1	40	600
COc1ccc2nc3c(nc2c1)O[C@@H]1C[C@H]2C(=O)N[C@]4(C(=O)NS(=O)(=O)C5CC5)C[C@H]4/C=C\CCCCC[C@H](NC(=O)O[C@]4(C)C[C@H]4CCCCC3)C(=O)N2C1 [Example 5, (3R,20R,22R,26S,32Z,34S,36R,39S)—N-(Cyclopropylsulfonyl)-9-methoxy-22-methyl-24,38,40-trioxo-4,23-dioxa-1,6,13,25,37-pentaazaheptacyclo[24.13.1.1^3,39.0^5,14.0^7,12.0^20,22.0^34,36]hentetraconta-5,7,9,11,13,32-hexaene-36-carboxamide]	250	1000	6000	20	0.18	20	700
COc1ccc2nc3c(nc2c1)O[C@@H]1C[C@H]2C(=O)N[C@]4(C(=O)NS(=O)(=O)C5(C)CC5)C[C@H]4/C=C\CCCCC[C@H](NC(=O)O[C@]4(C)C[C@H]4CCCCC3)C(=O)N2C1 [Example 6, (3R,20R,22R,26S,32Z,34S,36R,39S)-9-Methoxyl-22-methyl-N-[(1-methylcyclopropyl)sulfonyl]-24,38,40-trioxo-4,23-dioxa-1,6,13,25,37-pentaazaheptacyclo[24.13.1.1^3,39.0^5,14.0^7,12.0^20,22.0^34,36]hentetraconta-5,7,9,11,13,32-hexaene-36-carboxamide]	320	1000	4000	24	0.16	30	600
